Measured values: patent US4760023A, “[21-leucine] human urogastrone, corresponding gene, corresponding recombinant plasmid, transformed cell and process for production thereof” (Wakunaga Seiyaku Kabushiki Kaisha, priority 1983, dated 1988)

How the values were obtained:
[1] = system: mouse 3T3 cells; experiment: Bioassay of activity promoting proliferation of mouse 3T3 cells (viable cell count); assay type: cell-based; settings: 4 days, 0.5% FBS-DME, FIG. 3
Procedure: The activity of promoting proliferation of cells was determined by the following procedure. More specifically, monolayer culturing of mouse 3T3 cells was carried out in a 25-cm^2 flask, and the cells were treated with calcium- and magnesium-free HBSS (CMF-HBSS) containing 0.02% of EDTA and 0.05% of trypsin to prepare cell suspensions. The cells were washed with CMF-HBSS and resuspended in DME medium containing 0.5% of fetal bovine serum (FBS), and the number of viable cells was counted. The cell suspension was diluted with 0.5% FBS-DME medium so that the cell number was 2×10^4 per ml. Then, 1 ml of the cell suspension was seeded per 35 mm dish and incubation was carried out overnight in a CO2 incubator. Peptide fractions containing different concentrations of [21-L] hUG and mEGF as a control were dissolved in 0.5% FBS-DME medium and the mixtures were filtered by a Millipore filter (type GV, wpo 2500), and 1 ml aliquots of the mixtures were added to the above cell suspension. Incubation was carried out for 4 days in a CO2 incubator (5% CO2 -95% air, 37° C.). Viable cells were stained with Trypan Blue, and the number of the viable cells was counted using a counting chamber. […]

[2] = system: ulcer caused by ligation of the pylorus; experiment: Inhibitory effect on generation of stomach ulcer (pylorus ligation); assay type: in vivo, rats of the Wister strain; settings: rat
Procedure: The inhibitory effect of [21-L] hUG on generation of ulcer was examined on the basis of the activity of EGF of anti-gastric acid secretion [Gut, 16, 887 (1975)].
7-weeks-old male rats of the Wister strain were bred and caused to fast for 24 hours before ligation of the pylorus. The pylorus was ligated for 17 hours, and ulcer was caused by fasting and abstinence from drinking. The peptide fraction containing [21-L] hUG (corresponding to 500 μg of the protein) or physiological saline as a control was hypodermically injected 30 minutes before ligation of the pylorus. Each group tested consisted of 5 rats, and the anti-ulcer action was evaluated by calculating the ulcer index. More specifically, the long and short diameters of the olcerous erosion generated by ligation of the pylorus were measured under an anatomical microscope, and the sum of products of the long and short diameters per rat was defined as the ulcer coefficient.

[3] = biological target: T1, KB cell EGF receptor (Homo sapiens, UniProt P00533); experiment: Radioreceptor assay (RRA) using KB cells, competition with 125I-mEGF; assay type: binding; settings: FIG. 2
T1 construct: endogenous in cells; host or cells: KB cells (ATCC No. CCL17), intact cells in suspension
Procedure: RRA of [21-L] hUG was carried out using KB cells (ATCC No. CCL17) derived from a human nasopharyngeal epidermoid carcinoma in the light of the process of A. King et al [see J.B.C., 257, 3053 (1982)]. More specifically, monolayer culturing was carried out in DME medium in a 800-ml flask. The culture medium was removed, and cells were peeled with a phosphate buffer salt solution (PBS) containing 0.05% of EDTA to prepare a cell suspension. Then, the cells were washed 2 times with Hank's balanced salt solution (HBSS) containing 20 mM Hepes (pH 7.4). Then, the cells were suspended in a binding solution (DME medium, 20 mM Hepes, pH 7.4, 0.35 g/l of NaHCO3 and 100 μg/ml of Streptomycin), and the cell number was calculated and the cell density was adjusted to from 300,000 to 400,000 per 0.2 ml of the binding solution. The suspension was poured into tubes (0.2 ml in each tube), and 0.2 ml each of sample containing [21-L] hUG and ^125 I-mEGF (mouse EGF) at various concentrations were added into the tubes, respectively. Incubation was carried out at 37° C. for 1 hour. The cells were washed 3 times with ice-cold HBSS and suspended in 10% TCA, and the cells were separated from the solution by filtration through a glass filter. TCA was removed with acetone, and counting of radioactivity associated with the cells was performed by using a scintillation counter. […]

[4] = biological target: T2, mouse 3T3 cell (Mus musculus, UniProt Q01279); experiment: RRA using mouse 3T3 cell; assay type: binding
T2 construct: endogenous in cells; host or cells: mouse 3T3 cells
Procedure: RPA using mouse 3T3 cell was carried out according to the process of C.

[5] = system: mouse 3T3 cells; experiment: Bioassay of activity stimulating thymidine incorporation; assay type: cell-based; settings: for 3H-Thymidine In-take Amount cpm: 18 hours; for 3H-Thymidine In-take Amount Δcpm: minus no addition
Procedure: Incorporation of thymidine was determined according to a modification of the method of Aharon Aharonov et al [J.B.C., 253, 3970 (1978)] and the method of Jimenez de Asua et al [PNAS, 72, 2724 (1975)]. More specifically, 6×10^3 of mouse 3T3 cells were seeded in 0.5 ml of 5% FBS-DME medium in a multi-well dish, and culturing was done for 5 days to grow as monolayers to sub-confluency. The medium was removed, and the cells were washed with PBS, and 0.5 ml of 0.5% FBS-DME medium was added. Incubation was done overnight. Then, 0.5 ml of 0.5% FBS-DME medium containing [21-L] hUG at a predetermined concentration or mEGF was added, and incubation was further continued for 18 hours. Then, 200 nci of [^3 H]-thymidine was added, and incubation was carried out at 55° C. for 30 minutes. The cells were washed twice with cold HBSS containing 20 mM Hepes (pH 7.4) and washed twice with 5% TCA. Then, 200 μl of 1N NaOH was added, and incubation was carried out at 55° C. for 30 minutes to dissolve DNA. Then, 50 μl of the DNA solution was taken and 25 μl of 2N HCl was added for neutralization. The radio-activity of Thymidine was measured by means of a liquid scintillation counter.

[21-leucine] human urogastrone (NSDSECPLSHDGYCLHDGVCLYIEALDKYACNCVVGYIGERCQYRDLKWWELR; Epidermal growth factor; UniProt P01133 971-1023, looked up, variant M21L) [[21-L] hUG, 53-residue polypeptide, same as hUG except that the 21st amino acid is Leu; produced in E. coli, released by cyanogen bromide]
dose-response curve of cell proliferation compared with mEGF [1]: in good agreement with the curve for mEGF
Ulcer Coefficient ([2]; 500 μg of the protein hypodermically 30 minutes before ligation, pylorus ligated 17 hours): 44.5 ± 18.0 mm^2
generation of the ulcer (in words) ([2]; pylorus ligation): tends to inhibit generation of the ulcer
inhibition of binding of 125I-mEGF to the KB cell EGF receptor ([3]; 37° C., 1 hour): competitively inhibits binding
dosage-response curve in RRA compared with mEGF [3]: in good agreement with that of mEGF
RRA result using mouse 3T3 cell [4]: results similar to the results obtained in RRA using KB cell
3H-Thymidine In-take Amount cpm ([5]; 0.73 μg/ml): 17,170.8 cpm
3H-Thymidine In-take Amount Δcpm ([5]; 0.73 μg/ml): 12,531.3 cpm
3H-Thymidine In-take Amount cpm ([5]; 1.46 μg/ml): 11,761.7 cpm
3H-Thymidine In-take Amount Δcpm ([5]; 1.46 μg/ml): 7,122.2 cpm
3H-Thymidine In-take Amount cpm ([5]; 2.93 μg/ml): 13,567.0 cpm
3H-Thymidine In-take Amount Δcpm ([5]; 2.93 μg/ml): 8,927.5 cpm
thymidine incorporation (in words) ([5]; mouse 3T3 cells): promotes greatly thymidine incorporation

mouse epidermal growth factor (NSYPGCPSSYDGYCLNGGVCMHIESLDSYTCNCVIGYSGDRCQTRDLRWWELR; not fully specified; Epidermal growth factor; UniProt P01132 977-1029, looked up) [mEGF, mEGF (Toyobo, Japan), used for comparison]
3H-Thymidine In-take Amount cpm ([5]; 1 ng/ml): 14,510.5 cpm
3H-Thymidine In-take Amount Δcpm ([5]; 1 ng/ml): 9,871.0 cpm
3H-Thymidine In-take Amount cpm ([5]; 2 ng/ml): 13,387.4 cpm
3H-Thymidine In-take Amount Δcpm ([5]; 2 ng/ml): 8,747.9 cpm
3H-Thymidine In-take Amount cpm ([5]; 5 ng/ml): 14,695.2 cpm
3H-Thymidine In-take Amount Δcpm ([5]; 5 ng/ml): 10,055.7 cpm
3H-Thymidine In-take Amount cpm ([5]; 10 ng/ml): 14,094.6 cpm
3H-Thymidine In-take Amount Δcpm ([5]; 10 ng/ml): 9,455.1 cpm
